# Results taken from ChEMBL document CHEMBL4840351 (J Med Chem, 2021).
# What was measured:
# [1] = molecular target: Tyrosine-protein kinase BTK (Homo sapiens, UniProt Q06187); assay: Inhibition of full-length N-terminal GST tagged BTK (2 to 659 residues) (unknown origin) expressed in Sf21 insect cells using NH2-ETVYSEVRK-biotin as substrate preincubated for 1 hr followed by ATP addition and measured after 2 hrs by ELISA
# [2] = molecular target: Epidermal growth factor receptor (Homo sapiens, UniProt P00533); assay: Inhibition of N-terminal DYKDDDD-tagged EGFR (669 to 1210 residues) (unknown origin) expressed in Sf21 insect cells using NH2-ETVYSEVRK-biotin as substrate preincubated for 1 hr followed by ATP addition and measured after 2 hrs by ELISA
# [3] = molecular target: T1, Tyrosine-protein kinase ITK/TSK (Homo sapiens, UniProt Q08881); assay: Inhibition of full-length N-terminal GST-tagged ITK (2 to 620 residues) (unknown origin) expressed in Sf21 insect cells using NH2-ETVYSEVRK-biotin as substrate preincubated for 1 hr followed by ATP addition and measured after 2 hrs by ELISA
# T1 sequence (Q08881 whole entry): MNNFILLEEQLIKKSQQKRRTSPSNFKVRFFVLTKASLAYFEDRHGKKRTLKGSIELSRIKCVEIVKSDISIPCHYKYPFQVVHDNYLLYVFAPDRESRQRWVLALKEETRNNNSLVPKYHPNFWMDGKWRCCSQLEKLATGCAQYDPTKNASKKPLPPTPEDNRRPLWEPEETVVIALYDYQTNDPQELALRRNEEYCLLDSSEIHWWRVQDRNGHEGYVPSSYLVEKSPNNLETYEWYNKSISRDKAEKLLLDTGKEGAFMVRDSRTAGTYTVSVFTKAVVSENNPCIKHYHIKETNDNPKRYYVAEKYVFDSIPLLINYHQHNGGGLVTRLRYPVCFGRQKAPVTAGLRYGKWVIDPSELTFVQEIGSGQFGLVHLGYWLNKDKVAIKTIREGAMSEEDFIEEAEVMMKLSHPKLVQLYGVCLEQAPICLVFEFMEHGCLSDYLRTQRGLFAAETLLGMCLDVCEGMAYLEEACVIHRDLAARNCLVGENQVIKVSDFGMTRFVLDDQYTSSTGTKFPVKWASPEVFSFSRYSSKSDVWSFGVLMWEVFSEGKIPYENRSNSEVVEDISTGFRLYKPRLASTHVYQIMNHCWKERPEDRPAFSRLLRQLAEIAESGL
# TMD8 [4] = assay: Antitumor activity against human TMD8 cells xenografted in CB-17 SCID nude mouse assessed as tumor growth inhibition at 7.5 mg/kg, po bid administered for 21 days; type: functional; conditions: 504 h, time 21 day, read-out: TGI
# MOLM-13 = assay: Antiproliferative activity against human MOLM-13 cells assessed as reduction in cell viability incubated for 72 hrs by celltiter-glo assay; conditions: MOLM-13, 72 h
# TMD8 [5] = assay: Induction of cell cycle arrest in human TMD8 cells assessed as accumulation of cells at S phase at 3 nM incubated for 48 hrs by PI staining based flow cytometric analysis (reference value: 37.42 %); type: functional
# TMD8 [6] = assay: Induction of cell cycle arrest in human TMD8 cells assessed as accumulation of cells at G2 phase at 300 nM incubated for 48 hrs by PI staining based flow cytometric analysis (reference value: 4.92 %); type: functional
# TMD8 [7] = assay: Induction of cell cycle arrest in human TMD8 cells assessed as accumulation of cells at G1 phase at 300 nM incubated for 48 hrs by PI staining based flow cytometric analysis (reference value: 57.66 %); type: functional
# TMD8 [8] = assay: Induction of apoptosis in human TMD8 cells at 300 nM incubated for 72 hrs by Annexin V-FITC/PI staining based flow cytometric analysis (reference value: 13.4 %); type: functional
# TMD8 [9] = assay: Induction of apoptosis in human TMD8 cells at 30 nM incubated for 72 hrs by Annexin V-FITC/PI staining based flow cytometric analysis (reference value: 13.4 %); type: functional
# TMD8 [10] = assay: Induction of apoptosis in human TMD8 cells at 3000 nM incubated for 72 hrs by Annexin V-FITC/PI staining based flow cytometric analysis (reference value: 13.4 %); type: functional
# TMD8 [11] = assay: Induction of cell cycle arrest in human TMD8 cells assessed as accumulation of cells at S phase at 300 nM incubated for 48 hrs by PI staining based flow cytometric analysis (reference value: 37.42 %); type: functional
# TMD8 [12] = assay: Induction of cell cycle arrest in human TMD8 cells assessed as accumulation of cells at S phase at 30 nM incubated for 48 hrs by PI staining based flow cytometric analysis (reference value: 37.42 %); type: functional
# TMD8 [13] = assay: Induction of cell cycle arrest in human TMD8 cells assessed as accumulation of cells at G2 phase at 3 nM incubated for 48 hrs by PI staining based flow cytometric analysis (reference value: 4.92 %); type: functional
# TMD8 [14] = assay: Induction of cell cycle arrest in human TMD8 cells assessed as accumulation of cells at G1 phase at 30 nM incubated for 48 hrs by PI staining based flow cytometric analysis (reference value: 57.66 %); type: functional
# TMD8 [15] = assay: Antiproliferative activity against human TMD8 cells assessed as reduction in cell viability incubated for 72 hrs by celltiter-glo assay; conditions: TMD8, 72 h
# TMD8 [16] = assay: Induction of cell cycle arrest in human TMD8 cells assessed as accumulation of cells at G1 phase at 3 nM incubated for 48 hrs by PI staining based flow cytometric analysis (reference value: 57.66 %); type: functional
# TMD8 [17] = assay: Induction of cell cycle arrest in human TMD8 cells assessed as accumulation of cells at G2 phase at 30 nM incubated for 48 hrs by PI staining based flow cytometric analysis (reference value: 4.92 %); type: functional
# Ramos = assay: Antiproliferative activity against human Ramos cells assessed as reduction in cell viability incubated for 72 hrs by celltiter-glo assay
# [18] = Cmax in ICR mouse at 15 mg/kg, po after 24 hrs; type: ADME, organism-based; set-up: route oral, time 24 hrs, dose 15 mg/kg; conditions: in vivo
# NAMALVA = assay: Antiproliferative activity against human NAMALWA cells assessed as reduction in cell viability incubated for 72 hrs by celltiter-glo assay
# Pfeiffer = assay: Antiproliferative activity against human Pfeiffer cells assessed as reduction in cell viability incubated for 72 hrs by celltiter-glo assay
# [19] = Receptor occupancy at BTK in spleen of ICR mouse at 15 mg/kg, po after 24 hrs by ELISA; type: functional
# Rec1 = assay: Antiproliferative activity against human REC-1 cells assessed as reduction in cell viability incubated for 72 hrs by celltiter-glo assay; conditions: Rec1, 72 h
# SU-DHL-2 = assay: Antiproliferative activity against human SUDHL2 cells assessed as reduction in cell viability incubated for 72 hrs by celltiter-glo assay; conditions: SU-DHL-2, 72 h
# Raji = assay: Antiproliferative activity against human Raji cells assessed as reduction in cell viability incubated for 72 hrs by celltiter-glo assay
# Epidermal growth factor receptor, sequence (P00533 whole entry, the tested form may be a part): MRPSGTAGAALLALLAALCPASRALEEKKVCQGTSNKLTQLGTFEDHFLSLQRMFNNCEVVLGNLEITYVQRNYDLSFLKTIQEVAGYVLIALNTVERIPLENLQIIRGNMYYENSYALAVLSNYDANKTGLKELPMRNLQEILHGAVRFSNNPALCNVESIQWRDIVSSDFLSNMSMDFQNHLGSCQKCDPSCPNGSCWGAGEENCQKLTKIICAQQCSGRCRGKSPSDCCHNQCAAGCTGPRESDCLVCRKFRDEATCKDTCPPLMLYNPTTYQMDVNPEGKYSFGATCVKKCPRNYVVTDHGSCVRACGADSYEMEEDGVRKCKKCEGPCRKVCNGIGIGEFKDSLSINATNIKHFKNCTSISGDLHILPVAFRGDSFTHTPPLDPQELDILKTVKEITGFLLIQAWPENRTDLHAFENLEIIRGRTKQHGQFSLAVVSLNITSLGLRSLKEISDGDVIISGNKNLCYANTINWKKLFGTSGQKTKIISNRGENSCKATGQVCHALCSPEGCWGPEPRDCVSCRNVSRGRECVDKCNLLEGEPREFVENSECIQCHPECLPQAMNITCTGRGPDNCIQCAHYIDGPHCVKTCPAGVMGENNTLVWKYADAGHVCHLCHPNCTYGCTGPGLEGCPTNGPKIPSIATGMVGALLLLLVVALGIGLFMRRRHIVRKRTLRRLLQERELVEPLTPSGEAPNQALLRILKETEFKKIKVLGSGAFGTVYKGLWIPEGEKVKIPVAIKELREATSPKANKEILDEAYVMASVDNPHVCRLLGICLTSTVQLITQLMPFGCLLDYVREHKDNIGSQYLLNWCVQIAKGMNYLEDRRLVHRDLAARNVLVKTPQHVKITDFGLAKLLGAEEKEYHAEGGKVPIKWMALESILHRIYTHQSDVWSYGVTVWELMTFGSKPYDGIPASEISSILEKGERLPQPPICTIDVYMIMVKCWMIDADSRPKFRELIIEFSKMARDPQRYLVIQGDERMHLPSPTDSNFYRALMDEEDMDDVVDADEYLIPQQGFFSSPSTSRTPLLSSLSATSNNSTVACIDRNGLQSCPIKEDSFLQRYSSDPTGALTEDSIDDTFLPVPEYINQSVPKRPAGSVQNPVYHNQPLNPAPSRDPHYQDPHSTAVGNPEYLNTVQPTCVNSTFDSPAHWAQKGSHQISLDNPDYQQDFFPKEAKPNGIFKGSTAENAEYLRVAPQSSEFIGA
# Tyrosine-protein kinase BTK, sequence (Q06187 whole entry, the tested form may be a part): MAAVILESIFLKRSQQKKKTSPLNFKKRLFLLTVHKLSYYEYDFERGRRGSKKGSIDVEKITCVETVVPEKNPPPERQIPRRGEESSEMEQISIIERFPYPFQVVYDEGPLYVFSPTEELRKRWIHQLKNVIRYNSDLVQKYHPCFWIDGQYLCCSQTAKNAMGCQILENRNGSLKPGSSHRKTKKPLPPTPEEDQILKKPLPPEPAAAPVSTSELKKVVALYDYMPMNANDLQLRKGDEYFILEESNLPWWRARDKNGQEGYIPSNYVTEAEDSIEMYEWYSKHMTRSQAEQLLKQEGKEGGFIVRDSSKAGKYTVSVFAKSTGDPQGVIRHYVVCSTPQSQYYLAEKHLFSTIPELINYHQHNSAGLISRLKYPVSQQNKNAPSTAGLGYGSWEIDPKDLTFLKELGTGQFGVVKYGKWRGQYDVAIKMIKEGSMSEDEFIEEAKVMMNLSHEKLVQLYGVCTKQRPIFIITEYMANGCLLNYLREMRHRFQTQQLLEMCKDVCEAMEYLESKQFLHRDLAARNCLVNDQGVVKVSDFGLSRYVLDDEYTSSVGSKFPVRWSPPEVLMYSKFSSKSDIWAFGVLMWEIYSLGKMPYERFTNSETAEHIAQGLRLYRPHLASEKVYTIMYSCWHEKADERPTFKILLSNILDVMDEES
compound,measurement,setting,value
C=CC(=O)N1CCCC[C@H]1c1nc(-c2ccc(C(=O)Nc3cc(C#N)ccn3)cc2)c(C(N)=O)n1N,IC50,[1],17.1 nM
C#CC(=O)N1CCCC[C@H]1c1nc(-c2ccc(C(=O)Nc3cc(CC)ccn3)cc2)c(C(N)=O)n1N,IC50,[1],10 nM
C=CC(=O)N1CCCC[C@H]1c1nc(-c2ccc(C(=O)Nc3cc(-c4ccc(Cl)cc4)ccn3)cc2)c(C(N)=O)n1N,IC50,[2],12.6 nM
same,IC50,[3],1.92 µM
C=CC(=O)N1CCC[C@H]1c1nc(-c2ccc(C(=O)Nc3cc(CC)ccn3)cc2)c(C(N)=O)n1N,IC50,[1],39.3 nM
C/C=C/C(=O)N1CCCC[C@H]1c1nc(-c2ccc(C(=O)Nc3cc(CC)ccn3)cc2)c(C(N)=O)n1N,IC50,[1],> 10000 nM
C=CC(=O)N1CCC[C@@H](n2nc(-c3ccc(Oc4ccccc4)cc3)c3c(N)ncnc32)C1 [IBRUTINIB],inhibition in vivo at 7.5 mg/kg,TMD8 [4],99%
C=CC(=O)N1CCCC[C@H]1c1nc(-c2ccc(C(=O)Nc3ccccc3)cc2)c(C(N)=O)n1N,IC50,[1],571 nM
CC#CC(=O)N1CCCC[C@H]1c1nc(-c2ccc(C(=O)Nc3cc(-c4ccccc4)ccn3)cc2)c(C(N)=O)n1N,IC50,[2],16800 nM
same,IC50,[3],> 30 µM
C=CC(=O)N1CCCC[C@H]1c1nc(-c2ccc(C(=O)Nc3cc(-c4ccccc4)ccn3)cc2)c(C(N)=O)n1N,IC50,[2],79.4 nM
same,IC50,[3],2.21 µM
C=CC(=O)N1CCCC[C@H]1c1nc(-c2ccc(C(=O)Nc3cc(C(F)(F)F)ccn3)cc2)c(C(=O)OCC)n1N,IC50,[1],5160 nM
CCc1ccnc(NC(=O)c2ccc(-c3nc([C@@H]4CCCCN4C(=O)/C(C#N)=C/C4CC4)n(N)c3C(N)=O)cc2)c1,IC50,[1],> 10000 nM
C=CC(=O)N1CCCCC[C@H]1c1nc(-c2ccc(C(=O)Nc3cc(CC)ccn3)cc2)c(C(N)=O)n1N,IC50,[1],226 nM
CCc1ccnc(NC(=O)c2ccc(-c3nc([C@@H]4CCCCN4C(=O)C=C(C)C)n(N)c3C(N)=O)cc2)c1,IC50,[1],> 10000 nM
C=C(C)C(=O)N1CCCC[C@H]1c1nc(-c2ccc(C(=O)Nc3cc(CC)ccn3)cc2)c(C(N)=O)n1N,IC50,[1],> 10000 nM
C=CC(=O)N1CCCC[C@H]1c1nc(-c2ccc(C(=O)Nc3cc(Br)ccn3)cc2)c(C(N)=O)n1N,IC50,[2],578 nM
same,IC50,[3],15.3 µM
C=CC(=O)N1CCCC[C@H]1c1nc(-c2ccc(C(=O)Nc3cccnc3)cc2)c(C(N)=O)n1N,IC50,[1],> 10000 nM
C=CC(=O)N1CCC[C@@H](c2nc(-c3ccc(C(=O)Nc4cc(CC)ccn4)cc3)c(C(N)=O)n2N)C1,IC50,[1],18.9 nM
C=CC(=O)N1CCCC[C@H]1c1nc(-c2ccc(C(=O)Nc3cc(-c4ccc(F)cc4)ccn3)cc2)c(C(N)=O)n1N,IC50,[2],113 nM
same,IC50,[3],6.06 µM
CCc1ccnc(NC(=O)c2ccc(-c3nc([C@@H]4CCCCN4C(=O)/C(C#N)=C/C(C)C)n(N)c3C(N)=O)cc2)c1,IC50,[1],> 10000 nM
CC#CC(=O)N1CCCC[C@H]1c1nc(-c2ccc(C(=O)Nc3cc(Cl)ccn3)cc2)c(C(N)=O)n1N,IC50,[2],> 30000 nM
same,IC50,[3],> 30 µM
CCC(=O)N1CCCC[C@H]1c1nc(-c2ccc(C(=O)Nc3cc(C(F)(F)F)ccn3)cc2)c(C(N)=O)n1N,IC50,[1],4750 nM
CC#CC(=O)N1CCCC[C@H]1c1nc(-c2ccc(C(=O)Nc3cc(C(F)(F)F)ccn3)cc2)c(C(N)=O)n1N,IC50,MOLM-13,0.73 µM
same,Activity,TMD8 [5],41.28%
same,Activity,TMD8 [6],3.18%
same,Activity,TMD8 [7],94.86%
same,Activity,TMD8 [8],36.8%
same,Activity,TMD8 [9],14.1%
same,Activity,TMD8 [10],81.3%
same,IC50,[3],> 30 µM
same,Activity,TMD8 [11],1.96%
same,Activity,TMD8 [12],27.8%
same,Activity,TMD8 [13],4.09%
same,Activity,TMD8 [14],67.44%
same,IC50,TMD8 [15],54 nM
same,Activity,TMD8 [16],54.63%
same,Activity,TMD8 [17],4.76%
same,IC50,Ramos,0.77 µM
C=CC(=O)N1CCCC[C@H]1c1nc(-c2ccc(C(=O)Nc3cc(CC)ccn3)cc2)c(C(N)=O)n1N,IC50,[1],11.3 nM
CC#CC(=O)N1CCC[C@H]1c1nc(-c2ccc(C(=O)Nc3ccccn3)cc2)c2c(N)nccn12 [ACALABRUTINIB],Cmax,[18],780 nM
same,IC50,MOLM-13,358 µM
same,IC50,NAMALVA,> 10 µM
same,IC50,Pfeiffer,> 10 µM
same,IC50,TMD8 [15],24 nM
same,Occ,[19],44%
same,IC50,Rec1,13 nM
same,IC50,SU-DHL-2,> 10 µM
same,inhibition in vivo at 7.5 mg/kg,TMD8 [4],91%
same,IC50,Raji,> 10 µM
same,IC50,Ramos,31.3 µM
CC/C=C/C(=O)N1CCCC[C@H]1c1nc(-c2ccc(C(=O)Nc3cc(CC)ccn3)cc2)c(C(N)=O)n1N,IC50,[1],> 10000 nM
C=CC(=O)N1CCCC[C@H]1c1nc(-c2ccc(C(=O)Nc3cc(OC)ccn3)cc2)c(C(N)=O)n1N,IC50,[2],450 nM
same,IC50,[3],> 30 µM
C=CC(=O)N1CCCC[C@H]1c1nc(-c2ccc(C(=O)Nc3cc(Cl)ccn3)cc2)c(C(N)=O)n1N,IC50,[2],176 nM
same,IC50,[3],29.5 µM
